According to US9676760B2, “Fused heterocyclic compounds as ion channel modulators” (Gilead Sciences, Inc., priority 2011, dated 2017):

Columns and labels:
[1] = target: T1, wild-type human cardiac sodium channel, hNav1.5 (Homo sapiens, UniProt Q14524); experiment: Late INa screening assay (QPatch whole cell patch clamp, HEK293); format: cell-based; conditions: HEK293, percent block of late INa; compound at 1 μM; 10 μM Tefluthrin; read-out: Late INa 1 μM
Outline: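 HEK293 stably expressing hNav1.5 without beta subunits, recorded at 23-25° C. Late current was induced by 10 μM tefluthrin. Cells were depolarized from −120 mV to −20 mV for 250 ms at 0.1 Hz. Compounds were tested at 1 μM in extracellular solution, with baseline taken in 0Na-ECF; output is percent block of late INa.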

[2] = target: T1, wild-type human cardiac sodium channel, hNav1.5; experiment: Peak INa screening assay (tonic and use-dependent block); format: cell-based; conditions: compound at 1 μM
Procedure: The late sodium current (Late INa) and peak sodium current (Peak INa) assays are performed on an automated electrophysiology platform, QPatch 16× (Sophion Bioscience, Copenhagen, Denmark), which uses the whole cell patch clamp technique to measure currents through the cell membrane of up to 16 cells at a time. The assay uses an HEK293 (human embryonic kidney) cell line heterologously expressing the wild-type human cardiac sodium channel, hNav1.5, purchased from Millipore (Billerica, Mass.). No beta subunits were coexpressed with the Na channel alpha subunit. Cells are maintained with standard tissue culture procedures and stable channel expression is maintained with 400 μg/mL Geneticin in the culture medium. Cells isolated for use on QPatch are incubated for 5 minutes in Detachin 1×(Genlantis, San Diego, USA) at 37° C. to ensure that 80-90% of the cells are single and not part of a cell cluster. Experiments are carried out at 23-25° C.
For both the Late INa and Peak INa assays, series resistance compensation is set to 100% and series resistance and whole-cell compensation are performed automatically. Currents are digitized at 25 kHz and low-pass filtered at 12 kHz and 10 kHz for the late and peak INa assays, respectively. Currents through open sodium channels are automatically recorded and stored in the Sophion Bioscience Oracle database (Sophion Bioscience, Copenhagen, Denmark). Analysis is performed using QPatch Assay and database software and data are compiled in Excel.
Compound stocks are routinely made by the Gilead Sample Bank in plastic vials to 10 mM in dimethyl sulfoxide (DMSO). In some cases, when compounds are not soluble in DMSO, they are made in 100% ethanol. Stocks are sonicated as necessary. The extracellular solution for screening Late INa is composed of: 140 mM NaCl, 4 mM KCl, 1.8 mM CaCl2, 0.75 mM MgCl2 and 5 mM HEPES with pH adjusted to 7.4 using NaOH. The intracellular solution used to perfuse the inside of the cells for both the Late INa and Peak INa assays contains: 120 mM CsF, 20 mM CsCl, 5 mM EGTA, 5 mM HEPES and pH adjusted to 7.4 with CsOH. Compounds are diluted in extracellular solution to 1 μM in glass vials and then transferred to glass well plates before robotic addition to the cells. The 0 mM Na extracellular solution (0Na-ECF) used at the end of each experiment for the Late INa and Peak INa assays to measure baseline current contains: 140 mM N-methyl-D-glucamine; 4 mM KCl; 1.8 mM CaCl2; 0.75 mM MgCl2; 5 mM HEPES and pH was adjusted to 7.4 with HCl.
Compounds were also evaluated for their effect in several other assays, including their effect on Peak INa. […] Since the peak INa in the cells used herein can be very large, introducing artifacts in the recording, the concentration of Na^+ in the bath can be reduced to 20 mM and a nonpermeant cation added to compensate for the Na^+ that was removed to maintain the osmolarity and ionic strength of the solution (see solution details below).
A low stimulation frequency of 0.1 Hz was used to determine the effect of the test compound when the channel spent most of the time in the resting (closed) state and provides information about Tonic Block (TB). A higher stimulation frequency (3 Hz) was used to measure block of the channel when it spent more time in the activated and inactivated states and provided a measure of Use-Dependent Block (UDB). Use-dependent block refers to the accumulation of block with increased frequency of channel activation.

[3] = tonic block of peak INa, 0.1 Hz, read-out: Peak TB 1 μM
[4] = use-dependent block of peak INa, 3 Hz, read-out: Peak UDB 1 μM

T1 sequence (Q14524 whole entry): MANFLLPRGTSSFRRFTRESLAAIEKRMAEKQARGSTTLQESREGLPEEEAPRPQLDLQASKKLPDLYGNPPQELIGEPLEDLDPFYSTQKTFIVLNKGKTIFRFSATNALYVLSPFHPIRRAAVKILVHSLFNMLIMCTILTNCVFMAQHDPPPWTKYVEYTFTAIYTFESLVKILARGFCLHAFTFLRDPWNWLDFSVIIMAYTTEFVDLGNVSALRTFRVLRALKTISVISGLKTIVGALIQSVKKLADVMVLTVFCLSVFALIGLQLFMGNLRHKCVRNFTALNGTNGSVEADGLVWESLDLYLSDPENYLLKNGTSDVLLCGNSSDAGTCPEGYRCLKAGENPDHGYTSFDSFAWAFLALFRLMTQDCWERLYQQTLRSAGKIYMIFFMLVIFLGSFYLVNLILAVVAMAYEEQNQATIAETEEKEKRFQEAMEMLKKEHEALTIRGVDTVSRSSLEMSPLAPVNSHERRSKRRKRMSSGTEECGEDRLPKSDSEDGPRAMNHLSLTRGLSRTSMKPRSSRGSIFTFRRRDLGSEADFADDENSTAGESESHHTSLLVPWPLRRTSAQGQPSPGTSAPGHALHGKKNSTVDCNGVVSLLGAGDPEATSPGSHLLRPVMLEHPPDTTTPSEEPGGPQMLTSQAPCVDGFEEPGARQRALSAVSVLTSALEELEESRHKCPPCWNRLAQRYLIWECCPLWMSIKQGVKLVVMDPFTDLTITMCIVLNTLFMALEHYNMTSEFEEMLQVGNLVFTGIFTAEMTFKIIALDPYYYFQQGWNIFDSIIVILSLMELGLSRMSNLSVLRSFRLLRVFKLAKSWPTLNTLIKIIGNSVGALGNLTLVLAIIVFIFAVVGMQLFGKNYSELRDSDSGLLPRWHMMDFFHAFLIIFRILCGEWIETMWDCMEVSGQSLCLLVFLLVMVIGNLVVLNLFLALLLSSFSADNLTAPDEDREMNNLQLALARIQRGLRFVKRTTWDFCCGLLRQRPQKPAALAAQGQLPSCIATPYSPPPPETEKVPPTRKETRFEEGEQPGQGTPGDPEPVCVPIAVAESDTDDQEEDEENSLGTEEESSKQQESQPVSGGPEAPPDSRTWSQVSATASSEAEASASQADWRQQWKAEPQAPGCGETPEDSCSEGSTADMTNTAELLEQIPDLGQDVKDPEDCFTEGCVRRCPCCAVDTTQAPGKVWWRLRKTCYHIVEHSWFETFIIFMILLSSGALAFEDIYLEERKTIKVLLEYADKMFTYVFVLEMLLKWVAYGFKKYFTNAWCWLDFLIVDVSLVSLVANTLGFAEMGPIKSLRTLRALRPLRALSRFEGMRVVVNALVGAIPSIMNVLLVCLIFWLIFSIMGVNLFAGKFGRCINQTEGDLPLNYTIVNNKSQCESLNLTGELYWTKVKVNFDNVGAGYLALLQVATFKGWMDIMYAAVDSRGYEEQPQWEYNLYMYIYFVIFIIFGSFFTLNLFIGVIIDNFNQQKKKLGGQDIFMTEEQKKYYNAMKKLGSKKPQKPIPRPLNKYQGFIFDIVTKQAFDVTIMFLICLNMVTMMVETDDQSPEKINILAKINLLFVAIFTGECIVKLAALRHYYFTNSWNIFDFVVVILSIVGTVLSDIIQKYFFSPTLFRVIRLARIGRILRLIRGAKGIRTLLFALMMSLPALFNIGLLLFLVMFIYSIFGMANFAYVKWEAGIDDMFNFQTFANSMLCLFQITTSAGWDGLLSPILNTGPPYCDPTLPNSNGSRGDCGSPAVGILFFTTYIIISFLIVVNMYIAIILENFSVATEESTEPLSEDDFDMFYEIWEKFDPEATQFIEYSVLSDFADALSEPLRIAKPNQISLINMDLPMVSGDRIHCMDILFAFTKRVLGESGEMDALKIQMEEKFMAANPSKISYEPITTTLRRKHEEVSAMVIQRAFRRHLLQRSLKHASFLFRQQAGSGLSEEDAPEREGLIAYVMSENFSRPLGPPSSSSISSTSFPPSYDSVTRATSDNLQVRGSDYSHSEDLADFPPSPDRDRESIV

Row | SMILES | inhibition at 1 µM [1] [%] | inhibition at 1 µM [2, 3] [%] | inhibition at 1 µM [2, 4] [%]
1 | CN1C(=O)CN(Cc2ccccc2)C(=O)c2cc(-c3ccc(C(F)(F)F)cc3)ccc21 [Compound X-11, 4-benzyl-1-methyl-7-(4-(trifluoromethyl)phenyl)-3,4-dihydro-1H-benzo[e][1,4]diazepine-2,5-dione] | 48 | 17 | 20
2 | O=C1c2cc(-c3ccc(OC(F)(F)F)cc3)ccc2OCCN1Cc1cccc(C(F)(F)F)n1 [II-15, 7-(4-(trifluoromethoxy)phenyl)-4-((6-(trifluoromethyl)pyridin-2-yl)methyl)-3,4-dihydrobenzo[f][1,4]oxazepin-5(2H)-one] | 48 | 8 | 8
3 | O=C1c2cc(-c3ccc(OC(F)(F)F)cc3)ccc2OCCN1Cc1cnccn1 [II-31, 4-(pyrazin-2-ylmethyl)-7-(4-(trifluoromethoxy)phenyl)-3,4-dihydrobenzo[f][1,4]oxazepin-5(2H)-one] | 51 | 9 | 8
4 | Cc1cnc(CN2CCOc3ccc(-c4ccc(OC(F)(F)F)cc4)cc3C2=O)o1 [II-33, 4-((5-methyloxazol-2-yl)methyl)-7-(4-(trifluoromethoxy)phenyl)-3,4-dihydrobenzo[f][1,4]oxazepin-5(2H)-one] | 46 | 10 | 13
5 | O=C1c2cc(-c3ccc(OC(F)(F)F)cc3)ccc2OCCN1Cc1ccccc1Cl [II-47, 4-(2-chlorobenzyl)-7-(4-(trifluoromethoxy)phenyl)-3,4-dihydrobenzo[f][1,4]oxazepin-5(2H)-one] | 60 | 13 | 45
6 | O=C1c2cc(-c3ccc(OC(F)(F)F)cc3)ccc2OCCN1Cc1c(Cl)cccc1Cl [II-48, 4-(2,6-dichlorobenzyl)-7-(4-(trifluoromethoxy)phenyl)-3,4-dihydrobenzo[f][1,4]oxazepin-5(2H)-one] | 47 | 13 | 53
7 | O=C1c2cc(-c3ccc(OC(F)(F)F)cc3)ccc2OCCN1Cc1c(F)cccc1F [II-49, 4-(2,6-difluorobenzyl)-7-(4-(trifluoromethoxy)phenyl)-3,4-dihydrobenzo[f][1,4]oxazepin-5(2H)-one] | 63 | 28 | 44
8 | O=C1c2cc(-c3ccc(OC(F)(F)F)cc3)ccc2OCCN1CCn1cccn1 [II-50, 4-(2-(1H-pyrazol-1-yl)ethyl)-7-(4-(trifluoromethoxy)phenyl)-3,4-dihydrobenzo[f][1,4]oxazepin-5(2H)-one] | 48 | 5 | 19
9 | O=C1c2cc(-c3ccc(OC(F)(F)F)cc3)ccc2OCCN1CCc1ccccn1 [II-54, 4-(2-(pyridin-2-yl)ethyl)-7-(4-(trifluoromethoxy)phenyl)-3,4-dihydrobenzo[f][1,4]oxazepin-5(2H)-one] | 51 | 13 | 20
10 | O=C1c2cc(-c3ccc(OC(F)(F)F)cc3)ccc2OCCN1Cc1ccccc1F [II-57, 4-(2-fluorobenzyl)-7-(4-(trifluoromethoxy)phenyl)-3,4-dihydrobenzo[f][1,4]oxazepin-5(2H)-one] | 55 | 50 | 41
11 | O=C1c2cc(-c3ccc(OC(F)(F)F)cc3)ccc2OCCN1Cc1ccc(F)cc1 [II-62, 4-(4-fluorobenzyl)-7-(4-(trifluoromethoxy)phenyl)-3,4-dihydrobenzo[f][1,4]oxazepin-5(2H)-one] | 49 | 10 | 14
12 | Cn1ccc(CN2CCOc3ccc(-c4ccc(OC(F)(F)F)cc4)cc3C2=O)n1 [II-64, 4-((1-methyl-1H-pyrazol-3-yl)methyl)-7-(4-(trifluoromethoxy)phenyl)-3,4-dihydrobenzo[f][1,4]oxazepin-5(2H)-one] | 55 | 12 | 19
13 | O=C1c2cc(-c3ccc(OC(F)(F)F)cc3)ccc2OCCN1Cc1ccccn1 [II-72, 4-(pyridin-2-ylmethyl)-7-(4-(trifluoromethoxy)phenyl)-3,4-dihydrobenzo[f][1,4]oxazepin-5(2H)-one] | 60 | 22 | 34
14 | O=C1c2cc(-c3ccc(OC(F)(F)F)cc3)ccc2OCCN1Cc1ccccc1 [II-134, 4-benzyl-7-(4-(trifluoromethoxy)phenyl)-3,4-dihydrobenzo[f][1,4]oxazepin-5(2H)-one] | 69 | 38 | 34
15 | COc1ccnc(CN2CCOc3ccc(-c4ccc(OC(F)(F)F)cc4)cc3C2=O)n1 [II-137, 4-((4-methoxypyrimidin-2-yl)methyl)-7-(4-(trifluoromethoxy)phenyl)-3,4-dihydrobenzo[f][1,4]oxazepin-5(2H)-one] | 54 | 28 | 26
16 | O=C1c2cc(CCc3ccc(C(F)(F)F)cc3)ccc2OCCN1Cc1ccccc1 [VIII-11, 4-benzyl-7-(4-(trifluoromethyl)phenethyl)-3,4-dihydrobenzo[f][1,4]oxazepin-5(2H)-one] | 42 | – | –
17 | O=C1c2cc(-c3ccc(OC(F)(F)F)cc3)ncc2OCCN1Cc1ncccn1 [XII-5, 4-(pyrimidin-2-ylmethyl)-7-(4-(trifluoromethoxy)phenyl)-3,4-dihydropyrido[4,3-f][1,4]oxazepin-5(2H)-one] | 25 | – | –
18 | O=C1c2cc(-c3ccc(OC(F)(F)F)cc3)ncc2OCCN1CC1CC1 [XII-9, 4-(cyclopropylmethyl)-7-(4-(trifluoromethoxy)phenyl)-3,4-dihydropyrido[4,3-f][1,4]oxazepin-5(2H)-one] | 22 | – | –
19 | COc1ccnc(CN2CCOc3cnc(-c4ccc(OC(F)(F)F)cc4)cc3C2=O)n1 [XII-14, 4-((4-methoxypyrimidin-2-yl)methyl)-7-(4-(trifluoromethoxy)phenyl)-3,4-dihydropyrido[4,3-f][1,4]oxazepin-5(2H)-one] | 26 | – | –
20 | O=C1c2cc(Nc3ccc(OC(F)(F)F)cc3)ccc2OCCN1Cc1ncccn1 [XIII-1, 4-(pyrimidin-2-ylmethyl)-7-(4-(trifluoromethoxy)phenylamino)-3,4-dihydrobenzo[f][1,4]oxazepin-5(2H)-one] | 16 | – | –
21 | O=C1c2cc(Oc3ccc(OC(F)(F)F)cc3)ccc2OCCN1Cc1ncccn1 [XIII-2, 4-(pyrimidin-2-ylmethyl)-7-(4-(trifluoromethoxy)phenoxy)-3,4-dihydrobenzo[f][1,4]oxazepin-5(2H)-one] | 19 | – | –
22 | O=C1c2cc(Nc3ccc(C(F)(F)F)cc3)ccc2OCCN1Cc1ncccn1 [XIII-3, 4-(pyrimidin-2-ylmethyl)-7-(4-(trifluoromethyl)phenylamino)-3,4-dihydrobenzo[f][1,4]oxazepin-5(2H)-one] | 17 | – | –
23 | CN(c1ccc(OC(F)(F)F)cc1)c1ccc2c(c1)C(=O)N(Cc1ncccn1)CCO2 [XIII-10, 7-(methyl(4-(trifluoromethoxy)phenyl)amino)-4-(pyrimidin-2-ylmethyl)-3,4-dihydrobenzo[f][1,4]oxazepin-5(2H)-one] | 22 | – | –
